Measurements from US6599499B1, “Uses of diterpenoid triepoxides as an anti-proliferative agent” (priority 1999, dated 2003).

Assays:
[1] = system: A549 (non-small cell lung cancer) cells; experiment: Cell viability by MTT assay, A549 cells; conditions: for Percent survival: MTT after 48 h
Method: (§1) Cell culture and luciferase assay. A549 (non-small cell lung cancer), HT-1080 (fibrosarcoma), and MCF-7 (breast cancer) cells were cultured in the appropriate media with 10% FCS supplemented with L-glutamine, penicillin, and streptomycin. p53 wild-type (+/+) and null (−/−) Mouse Embryonic Fibroblasts (MEFs) transfected with the E1A/Ras were grown in DMEM containing 15% FCS supplemented with L-glutamine, penicillin, and streptomycin. Transfections were done on MCF-7 cells using the lipofectamine Plus reagent. At 24 hours after transfection, MCF-7 cells were left untreated or treated with triptolide (20 ng/ml) or doxorubicin (100 nM) for 4, 8, and 16 hours and cells were collected for luciferase assay. Luciferase activity was measured in samples with equal protein concentration with a Luminometer (Analytical Luminescence Laboratory, San Diego, Calif.).
(§2) Cell viability assay. Cell viability was measured by an 3-(4,5-dimethylthiazol-2-yl)-2,5-diphenyltetrazolium bromide (MTT) assay as described above. Untreated or cells treated with triptolide and/or doxorubicin were harvested at the indicated times followed by the addition of MTT to the cells in a 96-well plate. Cells were solubilized with […] acidified with 0.1N HCl. The 96-plate was read at a wavelength of 590 nm on an iEMS Labsystems plate reader.

[2] = system: MCF-7 (breast cancer) cells; experiment: cells; conditions: for Percent survival: MTT after 48 h
Method: as §1, §2

[3] = system: p53 consensus binding site; experiment: Electromobility shift assay of p53 DNA binding; type: cell-based, human
Method: Electromobility Shift Assay (EMSA. HT1080 cells were treated as shown. The EMSA was performed as described previously using an end-labeled 32P-p53 consensus binding site (Santa Cruz Biotechnology, Santa Cruz, Calif.) (Lee et al., supra.)

Bax = Bax protein level by immunoblot in MCF-7 cells; type: cell-based, human; conditions: triptolide-treated MCF-7 cells
Method: Immunoblotting. At 8 hours after triptolide and/or doxorubicin treatment cells were harvested at the times indicated and lysed using HNET buffer (50 mM HEPES pH 7.5, 100 mM NaCl, 1 mM EGTA, and 1% Triton X-100) supplemented with 1 mM DTT, 1 mM PMSF and protease inhibitors cocktail (Boehringer Mannheim, Germany). 35 μg of protein was loaded on 10% SDS-PAGE followed by transferring to PVDF membrane. Immunoblotting was performed as previously described using a p53 mouse monoclonal antibody from Oncogene Research Products (Lee et al. (1999) J Biol Chem 274:13451-5).
Immunoblot analysis using other antibodies was performed as described above. The band intensity was measured by NIH Image 1.62.

[4] = system: HT-1080 (fibrosarcoma) cells; experiment: Cell viability by MTT assay, HT-1080 cells; conditions: for Percent survival: MTT after 48 h
Method: as §1, §2

p53 = p53 protein level by immunoblotting (Example 5); type: cell-based, human
Method: Immunoblotting. Cells were harvested at the conditions and times indicated and lysed using HNET buffer (50 mM HEPES, pH 7.5, 100 mM NaCl, 1 mM EGTA, and 1% Triton X-100) supplemented with 1 mM dithiothreitol, 1 mM phenylmethylsulfonyl fluoride, and protease inhibitors mixture (Roche Molecular Biochemicals). 100 μg of protein was loaded on 10% SDS-PAGE followed by transferring to polyvinylidene difluoride membrane. Immunoblotting was performed as described previously using a p53 mouse monoclonal antibody from Oncogene Research Products. […] Immunoblot analysis using other antibodies was performed as described above. The band intensity was measured by NIH Image 1.62.

Dx5 cells = experiment: Cell survival of Bcl-2 or vector transfected Dx5 cells (X-gal staining); type: cell-based, human; conditions: PG490 20 ng/ml, 36 h
Method: Cells were cultured in the appropriate medium with 10% FCS supplemented with L-glutamine, penicillin and streptomycin. To examine the effect of Bcl-2 on cell survival, the Bcl-2 expression vector or the vector alone was co-transfected with a β galactosidase expression vector (Invitrogen, Carlsbad, Calif.) at a 5:1 ratio using lipofectamine plus (GIBCO BRL, Gaithersburg, Md.) into Dx5 cells. After 36 h cells were stained with 5-bromo4-chloro-3-indolyl □-D-galactopyranoside (X-gal). Cell survival was calculated as number of total cells-blue cells/total number of cells in a 90 mm^2 area from duplicate plates and expressed as the mean ±S.D.
Bcl-2 or vector control was transiently transfected into Dx5 cells followed by the addition of PG490 (20 ng/ml) and stained 36 h later with X-gal. % cell survival was calculated as total cells-blue cells/total cells×100. z-VAD.fmk (100 µM) was added to Dx5 cells 1 h prior to the addition of PG490 (20 ng/ml) and cells were harvested for analysis of cell viability 36 h later by annexin and propidium iodide staining followed by FACS analysis. Data represents the mean of three replicates from two independent experiments ±S.D.

p21 mRNA = p21 mRNA by Northern blot in HT1080 cells; type: cell-based, human; conditions: triptolide 20 ng/ml
Method: Northern Blot Analysis. RNA was prepared from HT1080 cells using RNeasy Mini Kit from Qiagen Inc. (Valencia, Calif.). cDNAs for Northern blot analysis for p21 and p53 were prepared using RT-PCR with […] of total RNA. The following primer pairs were used: p53, (SEQ ID NO:11) 5′-[…]-3′ and (SEQ ID NO:12) 5′-[…]-3′; p21, (SEQ ID NO:13) 5′-[…]-3′ and (SEQ ID NO:14) 5′-[…]-3′; and glyceraldehyde-3-phosphate dehydrogenase, (SEQ ID NO:15) 5′-[…]-3′ and 5′-(SEQ ID NO:16) […]-3′.

[5] = system: HT-29 human colon cancer cell line tumors; experiment: Nude mouse xenograft, established HT-29 colon cancer tumors; type: in vivo, nude mice
Method: HT-29 tumor cells grown in tissue culture were harvested and implanted intradermally on the backs of nude mice. Tumor size was monitored by measuring the dimensions of each tumor and calculating tumor volume with a formula. […] PG490-88 treatment at 0.25 mg/kg was administered daily i.p. 5 days per week for 2 weeks. Navelbine at 10 mg/kg was given i.v. on days 0 and 7. Mice in the combination treatment group received PG490-88 i.p. and Navelbine i.v. at the appropriate times. The treatments were given to mice at 100 μl per 10 g of mouse body weight. Tumor dimensions were measured periodically for calculation of tumor volumes. […] The data are presented as mean percent change in tumor volume from day 0 for each treatment group. Toxicity of the treatment was monitored by weighing the mice daily 5 days per week. In FIG. 8, a comparison is provided for tumor volumes on Days 0 and 14. Tumor dimensions were measured periodically for calculation of tumor volumes, and the final determinations were made on day 14.

[6] = A549, Triptolide 5 ng/ml, Doxorubicin 100 nM, alone or combined
[7] = HT-1080, Triptolide 5 ng/ml, Doxorubicin 100 nM, alone or combined

With `CC(C)[C@]12O[C@H]1[C@@H]1O[C@]13[C@]1(O[C@H]1C[C@H]1C4=C(CC[C@@]13C)C(=O)OC4)[C@@H]2O` [PG490, triptolide] the Percent survival [1, 6] was 91.1 ± 3.8%, the Percent survival ([1]; A549, Triptolide 20 ng/ml alone or with Doxorubicin 100 nM) was 64.0 ± 8.2% and the “effect on cell death induced by carboplatinum” value ([1]; A549 cells) was “enhances cell death”. The cytotoxicity at 0.02 µg/mL ([2]; Homo sapiens, MCF7, read-out: decrease in cell viability, MCF-7, triptolide 20 ng/ml) was 70%, the Percent survival ([2]; MCF-7, Triptolide 5 ng/ml) was 63.9 ± 8.1% and the Percent survival ([2]; MCF-7, Triptolide 20 ng/ml) was 30.5 ± 7.6%. For the same molecule, the “DNA binding of p53” value ([3]; triptolide alone) was “slightly enhanced”, the “effect on doxorubicin-mediated induction of DNA binding of p53” value ([3]; triptolide in combination with doxorubicin) was “did not block” and the “change in Bax” value (Bax) was “no significant change”. For the same molecule, the Percent survival [4, 7] was 90.4 ± 6.2%, the Percent survival ([4]; HT-1080, Triptolide 20 ng/ml alone or with Doxorubicin 100 nM) was 26.0 ± 5.2% and the cytotoxicity at 0.02 µg/mL ([4]; Homo sapiens, HT-1080, read-out: decrease in cell viability) was 74%. For the same molecule, the DNA strand breaks (DNA strand breaks) was “does not induce DNA strand breaks”, the “increase in p53” value (p53; HT1080, triptolide 5 ng/ml) was 2.4 fold and the “increase in p53 steady-state protein levels” value (p53; HT1080, triptolide 20 ng/ml, 9 h) was 4 fold. The cell survival (Dx5 cells; overexpression of Bcl-2) was 72%, the cell survival (Dx5 cells; vector control) was 15% and the “effect on doxorubicin-mediated induction of p21 mRNA” value (p21 mRNA) was “completely blocked”.

For `CC(C)[C@]12O[C@H]1[C@@H]1O[C@]13[C@]1(O[C@H]1C[C@H]1C4=C(CC[C@@]13C)C(=O)OC4)[C@@H]2OC(=O)CCC(=O)[O-].[Na+]` [PG490-88, 14-succinyl triptolide sodium salt], the “increase in tumor volume from day 0 by day 14” value ([5]; PG490-88 0.25 mg/kg i.p. 5 days per week for 2 weeks, Navelbine 10 mg/kg i.v. days 0 and 7) was 238% and the “Day 0 Tumor Volume (mm^3) Mean” value ([5]; baseline at grouping, before treatment) was 109 mm^3.

For `COc1cccc2c1C(=O)c1c(O)c3c(c(O)c1C2=O)C[C@@](O)(C(=O)CO)C[C@@H]3O[C@H]1C[C@H](N)[C@H](O)[C@H](C)O1` [doxorubicin, reference compound], the Percent survival [1, 6] was 85.7 ± 9.6%, the cytotoxicity at 0.1 µM ([1]; Homo sapiens, A549, 48 h, read-out: decrease in cell viability, A549, triptolide 20 ng/ml, doxorubicin 100 nM, alone or combined, 48 hours) was 14.3% and the Percent survival [4, 7] was 93.6 ± 4.3%. The cytotoxicity at 0.1 µM ([4]; Homo sapiens, HT-1080, 48 h, read-out: decrease in cell viability, HT-1080, triptolide 5 ng/ml (13.5 nM), doxorubicin 100 nM, alone or combined, 48 hours) was 6.4% and the “increase in p53 protein” value (p53; HT1080, doxorubicin alone or plus triptolide) was 4.9 fold.
